pEC50, pKi: −log10 of the molar value. Values joined by “and” are separate entries in the source; they are usually repeats but may differ in a detail not shown here. Equal values may be shown once. Read-outs that look alike come from different tables or passages of the source.
Legend:
[1] = rcm bond, 15-membered ring, DCM, 40.0 °C
[2] = target: T1, full-length NS3-NS4A enzyme (Hepatitis C virus genotype 1a, UniProt P27958); assay: HCV protease assay (continuous FRET, full-length enzyme); assay type: biochemical; conditions: 3 nM full-length NS3-NS4A, 3 uM depsipeptide FRET substrate S1; competitive inhibition fit
T1 construct: 3 nM full-length NS3-NS4A enzyme
T1 sequence (P27958 1027-1657): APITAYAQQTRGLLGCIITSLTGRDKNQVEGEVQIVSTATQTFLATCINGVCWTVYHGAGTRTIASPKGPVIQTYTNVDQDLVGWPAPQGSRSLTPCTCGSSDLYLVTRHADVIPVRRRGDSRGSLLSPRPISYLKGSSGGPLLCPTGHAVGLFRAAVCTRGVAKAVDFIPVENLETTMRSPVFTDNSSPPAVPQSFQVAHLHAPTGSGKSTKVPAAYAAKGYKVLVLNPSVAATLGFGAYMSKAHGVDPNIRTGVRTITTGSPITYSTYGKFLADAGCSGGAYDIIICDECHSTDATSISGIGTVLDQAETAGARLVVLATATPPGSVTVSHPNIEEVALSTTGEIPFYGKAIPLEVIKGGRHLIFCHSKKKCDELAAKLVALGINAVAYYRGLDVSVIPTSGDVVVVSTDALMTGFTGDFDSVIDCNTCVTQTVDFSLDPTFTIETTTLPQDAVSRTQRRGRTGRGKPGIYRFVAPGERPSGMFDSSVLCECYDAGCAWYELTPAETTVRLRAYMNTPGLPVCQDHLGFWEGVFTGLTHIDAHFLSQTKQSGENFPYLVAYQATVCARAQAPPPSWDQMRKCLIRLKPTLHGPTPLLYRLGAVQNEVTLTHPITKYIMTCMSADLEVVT
T1 sequence (P27958 1658-1711): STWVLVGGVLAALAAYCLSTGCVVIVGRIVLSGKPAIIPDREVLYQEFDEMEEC
Protocol: HCV protease activity and compound inhibition was monitored using a continuous, fluorescence resonance energy transfer (FRET) assay. Test compounds at various concentrations were added to assay buffer (50 mM MOPS pH 7.5, 50 mM NaCl, 20% glycerol, 0.025% Triton-X 100, 1 mM tris(2-carboxyethyl)phosphine) containing 3 uM depsipeptide FRET substrate S1 (Anaspec) (see Taliani et al. Analytical Biochemistry, 240, 60-67 (1996)) in a white, non-binding 96-well plate (Corning). The reaction was started by the addition of 3 nM full-length NS3-NS4A enzyme. The increase in fluorescence intensity following peptide cleavage was monitored using a Safire fluorescence plate reader (Tecan). The excitation and emission wavelengths were 340 nm and 500 nm, respectively. Inhibition constants (KI) were calculated by non-linear regression analysis using an equation derived for competitive inhibition.

[3] = in vitro; assay type: cell-based; conditions: human; 50% reduction of firefly luciferase expression, 3 days incubation; read-out: Replicon CC50
Protocol: (§1) Cell-based antiviral activity was evaluated in the previously described HCV dual reporter subgenomic replicon system (the '075 application). With this system, the effects of a compound on both HCV replication and cell viability can be simultaneously determined by measuring the intracellular levels of two separate reporter proteins. The dicistronic selectable replicon contains the Renilla luciferase gene such that Renilla luciferase activity within stably-transfected cells serves as a marker of HCV replication. The firefly luciferase gene is stably integrated into and expressed by the Huh-7 host cells. Since firefly luciferase activity is dependent upon cellular transcription and translation, firefly luciferase activity serves as an indicator of cell viability.
(§2) The dual reporter selectable replicon cell line (B6b) was maintained in DMEM supplemented with 10% FBS, L-glutamine, non-essential amino acids, penicillin, streptomycin, and selection agents (200 ug/ml G418 and 6 ug/ml blastocidin). On the first day of the experiment, cells were trypsinized, washed, and diluted in medium lacking the selection agents. Cells were transferred to 96-well, black-walled, clear bottom plates at a density of 2×10^4 cells in 150 ul of medium per well. Cells were allowed to settle for 60 to 90 minutes while compounds were being prepared. Each compound was initially diluted to a 4× working stock (2.56% DMSO in tissue culture medium) that was then serially diluted nine times in half log increments in medium with 2.56% DMSO. Fifty microliters of each dilution were then added in triplicate to the plated cells in order to obtain final IX compound concentrations with 0.64% DMSO. Typical testing concentrations ranged from 320 uM to 10 nM. Control wells containing 0.64% DMSO without compound were also included on each plate.
(§3) After 3 days of incubation under humidity at 37° C. with 5% CO2, plates were microscopically examined for compound precipitation and cell death. Tissue culture medium was then aspirated and cells were lysed with 20 ul of 1× Passive Lysis Buffer (Promega, Madison, Wis.). Reporter activity was measured using a MicroBeta Jet 1450 (Perkin Elmer, Boston, Mass.) following sequential 50 ul additions of firefly and Renilla luciferase substrates as described in the manufacturers protocol (Promega). Luciferase activities were expressed as a percentage of the signals observed in the compound-free control wells. The amount of compound required to reduce Renilla luciferase expression by 50% is defined as the 50% effective concentration, or EC50. The amount of compound that reduces firefly luciferase expression by 50% is defined as the 50% cytotoxic concentration, or CC50. A therapeutic index (TI) is calculated by dividing the CC50 by the EC50.

[4] = system: HCV dual reporter subgenomic replicon (B6b cell line); assay: HCV dual reporter subgenomic replicon assay, Renilla luciferase (antiviral activity); assay type: cell-based; conditions: Hepatitis C virus, 72 h; 50% reduction of Renilla luciferase expression, 3 days incubation
Protocol: The compounds described herein were tested for antiviral activity utilizing a dual-reporter replicon assay as described in U.S. patent application Ser. No. 10/818,075 (the '075 application), filed Apr. 5, 2004. The disclosure of the '075 application is incorporated herein.
as §1, §2, §3

Row | SMILES | ring closure, isolated yield ([1]; from C=CCCCCCC(NC(=O)OC(C)(C)C)C(=O)N1C[C@H](Oc2cc(-c3ccccn3)nc3ccsc23)C[C@H]1C(=O)N[C@]1(C(=O)OC)C[C@H]1C=C, Grubbs II (0.25 equiv), 2.0 mM, 4.0 h) [%] | ring closure, isolated yield ([1]; from C=CCCCCCC(NC(=O)OC(C)(C)C)C(=O)N1CC(Oc2nc(-c3cc(C)nn3C)nc3ccsc23)CC1C(=O)NC1(C(=O)OC)CC1C=C, Grubbs II (0.15 equiv), 5.0 mM, 2.0 h) [%] | pKi [2] | CC50 at 3 days [3] [nM] | pEC50 [4]
1 | COC(=O)[C@@]12C[C@H]1/C=C\CCCCCC(NC(=O)OC(C)(C)C)C(=O)N1C[C@H](Oc3cc(-c4ccccn4)nc4ccsc34)C[C@H]1C(=O)N2 (some centres unmarked) | 24 |  |  |  | 
2 | COC(=O)[C@@]12C[C@H]1/C=C\CCCCC[C@H](NC(=O)OC(C)(C)C)C(=O)N1C[C@H](Oc3nc(-c4cc(C)nn4C)nc4ccsc34)C[C@H]1C(=O)N2 |  | 38 |  |  | 
3 | O=C(CC1CC1)N[C@H]1CCCCC/C=C\[C@@H]2C[C@@]2(C(=O)O)NC(=O)[C@@H]2C[C@@H](Oc3nc(-c4ccccn4)nc4ccsc34)CN2C1=O [Example 46, (2R,6S,12Z,13aS,14aR,16aS)-6-[(Cyclopropylacetyl)amino]-5,16-dioxo-2-[(2-pyridin-2-ylthieno[3,2-d]pyrimidin-4-yl)oxy]-1,2,3,6,7,8,9,10,11,13a,14,15,16,16a-tetradecahydrocyclopropa[e]pyrrolo[1,2-a][1,4]diazacyclopentadecine-14a(5H)-carboxylic acid] |  |  | 7.82 | > 320000 | 7.04
4 | Cc1cc(-c2nc(O[C@@H]3C[C@H]4C(=O)N[C@]5(C(=O)O)C[C@H]5/C=C\CCCCC[C@H](NC(=O)OC5CCCC5)C(=O)N4C3)c3sccc3n2)n(C)n1 [Example 58, (2R,6S,12Z,13aS,14aR,16aS)-6-{[(Cyclopentyloxy)carbonyl]amino}-2-{[2-(1,3-dimethyl-1H-pyrazol-5-yl)thieno[3,2-d]pyrimidin-4-yl]oxy}-5,16-dioxo-1,2,3,6,7,8,9,10,11,13a,14,15,16,16a-tetradecahydrocyclopropa[e]pyrrolo[1,2-a][1,4]diazacyclopentadecine-14a(5H)-carboxylic acid] |  |  | 8.64 | 216000 | 7.21
5 | Cc1cc(-c2nc(O[C@@H]3C[C@H]4C(=O)N[C@]5(C(=O)O)C[C@H]5/C=C\CCCCC[C@H](NC(=O)OC5CCC5)C(=O)N4C3)c3sccc3n2)n(C)n1 [Example 60, (2R,6S,12Z,13aS,14aR,16aS)-6-{[(Cyclobutyloxy)carbonyl]amino}-2-{[2-(1,3-dimethyl-1H-pyrazol-5-yl)thieno[3,2-d]pyrimidin-4-yl]oxy}-5,16-dioxo-1,2,3,6,7,8,9,10,11,13a,14,15,16,16a-tetradecahydrocyclopropa[e]pyrrolo[1,2-a][1,4]diazacyclopentadecine-14a(5H)-carboxylic acid] |  |  | 8.17 | 222000 | 6.15
6 | Cc1cc(-c2nc(O[C@@H]3C[C@H]4C(=O)N[C@]5(C(=O)O)C[C@H]5/C=C\CCCCC[C@H](NC(=O)OC(C)(C)C)C(=O)N4C3)c3sccc3n2)n(C)n1 [Example 61, (2R,6S,12Z,13aS,14aR,16aS)-6-[(Tert-butoxycarbonyl)amino]-2-{[2-(1,3-dimethyl-1H-pyrazol-5-yl)thieno[3,2-d]pyrimidin-4-yl]oxy}-5,16-dioxo-1,2,3,6,7,8,9,10,11,13a,14,15,16,16a-tetradecahydrocyclopropa[e]pyrrolo[1,2-a][1,4]diazacyclopentadecine-14a(5H)-carboxylic acid] |  |  | 7.95 | 244000 | 6.06
7 | Cc1cc(-c2nc(O[C@@H]3C[C@H]4C(=O)N[C@]5(C(=O)O)C[C@H]5/C=C\CCCCC[C@H](NC(=O)CC5CC5)C(=O)N4C3)c3sccc3n2)n(C)n1 [Example 63, (2R,6S,12Z,13aS,14aR,16aS)-6-[(cyclopropylacetyl)amino]-2-{[2-(1,3-dimethyl-1H-pyrazol-5-yl)thieno[3,2-d]pyrimidin-4-yl]oxy}-5,16-dioxo-1,2,3,6,7,8,9,10,11,13a,14,15,16,16a-tetradecahydrocyclopropa[e]pyrrolo[1,2-a][1,4]diazacyclopentadecine-14a(5H)-carboxylic acid] |  |  | 8.09 | > 320000 | 7.96
8 | Cc1cc(-c2nc(O[C@@H]3C[C@H]4C(=O)N[C@]5(C(=O)O)C[C@H]5/C=C\CCCCC[C@H](NC(=O)O[C@H]5CCOC5)C(=O)N4C3)c3sccc3n2)n(C)n1 [Example 65, (2R,6S,12Z,13aS,14aR,16aS)-2-{[2-(1,3-Dimethyl-1H-pyrazol-5-yl)thieno[3,2-d]pyrimidin-4-yl]oxy}-5,16-dioxo-6-({[(3S)-tetrahydrofuran-3-yloxy]carbonyl}amino)-1,2,3,6,7,8,9,10,11,13a,14,15,16,16a-tetradecahydrocyclopropa[e]pyrrolo[1,2-a][1,4]diazacyclopentadecine-14a(5H)-carboxylic acid] |  |  | 7.99 and 8.10 | > 320000 | 5.59
9 | CC(C)Nc1cccc(-c2nc(O[C@@H]3C[C@H]4C(=O)N[C@]5(C(=O)O)C[C@H]5/C=C\CCCCC[C@H](NC(=O)OC(C)(C)C)C(=O)N4C3)c3sccc3n2)n1 [Example 79, (2R,6S,12Z,13aS,14aR,16aS)-6-[(Tert-butoxycarbonyl)amino]-2-({2-[6-(isopropylamino)pyridin-2-yl]thieno[3,2-d]pyrimidin-4-yl}oxy)-5,16-dioxo-1,2,3,6,7,8,9,10,11,13a,14,15,16,16a-tetradecahydrocyclopropa[e]pyrrolo[1,2-a][1,4]diazacyclopentadecine-14a(5H)-carboxylic acid] |  |  | 7.95 | 212000 | 6.74
10 | Cn1ccnc1-c1cc2nccc(O[C@@H]3C[C@H]4C(=O)N[C@]5(C(=O)O)C[C@H]5/C=C\CCCCC[C@H](NC(=O)OC(C)(C)C)C(=O)N4C3)c2s1 [Example 86, (2R,6S,12Z,13aS,14aR,16aS)-6-[(tert-butoxycarbonyl)amino]-2-{[2-(1-methyl-1H-imidazol-2-yl)thieno[3,2-b]pyridin-7-yl]oxy}-5,16-dioxo-1,2,3,6,7,8,9,10,11,13a,14,15,16,16a-tetradecahydrocyclopropa[e]pyrrolo[1,2-a][1,4]diazacyclopentadecine-14a(5H)-carboxylic acid] |  |  | 7.16 | > 320000 | 4.82
11 | Cn1ccnc1-c1cc2nccc(O[C@@H]3C[C@H]4C(=O)N[C@]5(C(=O)O)C[C@H]5/C=C\CCCCC[C@H](NC(=O)OC5CCCC5)C(=O)N4C3)c2s1 [Example 89, (2R,6S,12Z,13aS,14aR,16aS)-6-{[(Cyclopentyloxy)carbonyl]amino}-2-{[2-(1-methyl-1H-imidazol-2-yl)thieno[3,2-b]pyridin-7-yl]oxy}-5,16-dioxo-1,2,3,6,7,8,9,10,11,13a,14,15,16,16a-tetradecahydrocyclopropa[e]pyrrolo[1,2-a][1,4]diazacyclopentadecine-14a(5H)-carboxylic acid] |  |  | 7.85 and 7.89 | > 320000 | 6.30
12 | Cn1ccnc1-c1cc2nccc(O[C@@H]3C[C@H]4C(=O)N[C@]5(C(=O)O)C[C@H]5/C=C\CCCCC[C@H](NC(=O)CC5CC5)C(=O)N4C3)c2s1 [Example 91, (2R,6S,12Z,13aS,14aR,16aS)-6-[(Cyclopropylacetyl)amino]-2-{[2-(1-methyl-1H-imidazol-2-yl)thieno[3,2-b]pyridin-7-yl]oxy}-5,16-dioxo-1,2,3,6,7,8,9,10,11,13a,14,15,16,16a-tetradecahydrocyclopropa[e]pyrrolo[1,2-a][1,4]diazacyclopentadecine-14a(5H)-carboxylic acid] |  |  | 7.04 and 7.15 | > 320000 | 6.54
